Results from article PMC3266168 (Journal of Medicinal Chemistry, 2011).
≈ marks a conversion by molar mass, not a printed value.

Experiments:
[1] = target: F. tularensis FabI (Francisella tularensis subsp. tularensis, UniProt Q5NGQ3); type: biochemical
[2] = test system: F. tularensis; assay: microbe, parasite or virus in culture; type: cell-based; details: Francisella tularensis
[3] = test system: E.coli TolC mutant (BW251113-TolC-); type: cell-based
[4] = test system: E.coli (BW251113); type: cell-based

Sequence of F. tularensis FabI (Q5NGQ3 1-260): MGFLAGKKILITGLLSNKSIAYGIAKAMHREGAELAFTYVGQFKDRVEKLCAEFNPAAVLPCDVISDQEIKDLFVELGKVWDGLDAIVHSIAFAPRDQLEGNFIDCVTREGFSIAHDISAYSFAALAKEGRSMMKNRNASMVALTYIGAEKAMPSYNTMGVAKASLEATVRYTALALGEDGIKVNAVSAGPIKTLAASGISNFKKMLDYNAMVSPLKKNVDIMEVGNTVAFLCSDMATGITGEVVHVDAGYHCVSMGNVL

Row | SMILES | L.E. (Ligand Efficiency) [1] | fold increase in activity (IC50) over hit compound 2 [1] [fold] | MIC [2] [µg/mL] | MIC [3] | MIC [4]
1 | Nc1ncc(Cc2ccc(Cl)cc2)s1 [Compound 1] | 0.41 |  |  |  | 
2 | Clc1ccc(Cn2cnc3ccccc32)cc1 [Compound 2, 1-(4-chlorobenzyl) benzimidazole] | 0.37 |  |  |  | 
3 | Clc1ccc(Cn2cnc3ccccc32)cc1Cl [Compound 6] |  | ~10 | 15.6 (≈ 56.3 µM) |  | 
4 | Cc1cc2ncn(Cc3ccc(Cl)c(Cl)c3)c2cc1C [Compound 9] |  | 100 |  | 6.25 (3) μg/mL | >200 (3) μg/mL
